Legend:
Format in all cases: in vivo
[1] = tested on: Echinochloa crus-galli (L.) Beauv. var. crusgalli (Ec); test: Test for herbicidal effect by upland foliage treatment (Test Example 3); details: 100 g/10 a active ingredient, examined at 14th day
Summary of the method: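 Potted upland-soil Ec seedlings grown 2 weeks in greenhouse, then foliage-sprayed with water-diluted wettable powder at 100 L per 10 ares, giving 100 g active ingredient per 10 ares. Herbicidal effect scored on a graded standard 14 days after treatment.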

[2] = tested on: Echinochloa crus-galli (L.) Beauv. var. crusgall (Ec); test: Test for herbicidal effect by upland field soil treatment (Test Example 2), Ec
Summary of the method: (§1)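 Echinochloa crus-galli and Setaria viridis were sown in upland field soil and covered, then the soil surface was sprayed with water-diluted wettable powder at 100 g active ingredient per 10 ares (100 liters per 10 ares). Plants were grown in a greenhouse and scored on a standard scale on day 21.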

[3] = tested on: Echinochloa oryzicola Vasing. (Eo); test: Test for crop selectivity by paddy field soil treatment (Test Example 4), herbicidal effect on Eo; details: 100 g/10 a active ingredient, 21st day
Description: (§2) [table] <Test Example 4> Test For Crop Selectivity By Paddy Field Soil Treatment A paddy field soil was filled in a plastic pot of 100 cm^2 and subjected to puddling. Seeds of Echinochloa oryzicola Vasing. (Eo) were sowed; two-leaf stage seedlings of rice (Or) were transplanted in a depth of 2 cm; and water was filled in a depth of 3 cm. Next day, wettable powders produced in accordance with the Formulation 1 were diluted with water and dropped on the water surface. The application amount of each wettable powder was 100 g per 10 ares in terms of the active ingredient. Then, breeding was made in a greenhouse. At the 21st day from the treatment, the phytotoxicity and herbicidal effect of each wettable powder were examined in accordance with the standard shown in Table 40.

[4] = tested on: Setaria viridis (L.) Beauv. (Se); test: Test for herbicidal effect by upland field soil treatment (Test Example 2), Se
Summary of the method: as §1

[5] = tested on: rice (Or); test: Test for crop selectivity by paddy field soil treatment (Test Example 4), phytotoxicity to rice; details: transplanted two-leaf stage rice, 100 g/10 a active ingredient, 21st day
Description: as §2

[6] = tested on: Echinochloa oryzicola Vasing. (Eo); test: Test for herbicidal effect by paddy field soil treatment (Test Example 1); details: application amount (active ingredient) 100 g/10 a, examined at the 21st day from the treatment, index per Table 40
Summary of the method: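 Eo seeds sown in puddled paddy soil under 3 cm water; next day a water-diluted wettable powder was dropped onto the water surface at 100 g active ingredient per 10 ares. Herbicidal effect scored on a standard scale 21 days after treatment, greenhouse-grown.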

[7] = application amount (active ingredient) 100 g/10 a, examined at the 21st day from the treatment, index per Table 40
[8] = 100 g/10 a active ingredient, examined at 21st day

SMILES | Herbicidal effect to Ec [1] | Herbicidal effect to Ec [2, 7] | Herbicidal effect to Eo [3] | Herbicidal effect to Se [4, 7] | Phytotoxicity to Or [5] | Herbicidal effect to Eo [6] | Herbicidal effect to Ec [2, 8] | Herbicidal effect to Se [4, 8]
COC(=O)c1ccccc1CS(=O)(=O)C1=NOC(C)(C)C1 [Compound 1-145] | 4 (A herbicidal effect or phytotoxicity of 70% to less than 90%) | 5 (A herbicidal effect or phytotoxicity of 90% or more) | 5 (A herbicidal effect or phytotoxicity of 90% or more) | 5 (A herbicidal effect or phytotoxicity of 90% or more) | 0 (A herbicidal effect or phytotoxicity of 0% to less than 10%) | 5 (A herbicidal effect or phytotoxicity of 90% or more) | – | –
CCC1(C)CC(S(=O)(=O)Cc2ccc(C)cc2)=NO1 (stereo not shown) [Compound 1-203] | 4 (A herbicidal effect or phytotoxicity of 70% to less than 90%) | 5 (A herbicidal effect or phytotoxicity of 90% or more) | 5 (A herbicidal effect or phytotoxicity of 90% or more) | 4 (A herbicidal effect or phytotoxicity of 70% to less than 90%) | 1 (A herbicidal effect or phytotoxicity of 10% to less than 30%) | 5 (A herbicidal effect or phytotoxicity of 90% or more) | – | –
CCC1(C)CC(S(=O)(=O)Cc2cccc(OC)c2)=NO1 (stereo not shown) [Compound 1-229] | 4 (A herbicidal effect or phytotoxicity of 70% to less than 90%) | 5 (A herbicidal effect or phytotoxicity of 90% or more) | 5 (A herbicidal effect or phytotoxicity of 90% or more) | 5 (A herbicidal effect or phytotoxicity of 90% or more) | 1 (A herbicidal effect or phytotoxicity of 10% to less than 30%) | 5 (A herbicidal effect or phytotoxicity of 90% or more) | – | –
CCC1(C)CC(S(=O)(=O)Cc2cccc([N+](=O)[O-])c2)=NO1 (stereo not shown) [Compound 1-331] | – | 5 (A herbicidal effect or phytotoxicity of 90% or more) | 5 (A herbicidal effect or phytotoxicity of 90% or more) | 5 (A herbicidal effect or phytotoxicity of 90% or more) | 0 (A herbicidal effect or phytotoxicity of 0% to less than 10%) | 5 (A herbicidal effect or phytotoxicity of 90% or more) | – | –
CC(C)C1(C)CC(S(=O)(=O)Cc2c(F)cccc2F)=NO1 (stereo not shown) [Compound 1-368] | – | 5 (A herbicidal effect or phytotoxicity of 90% or more) | 5 (A herbicidal effect or phytotoxicity of 90% or more) | 4 (A herbicidal effect or phytotoxicity of 70% to less than 90%) | 1 (A herbicidal effect or phytotoxicity of 10% to less than 30%) | 5 (A herbicidal effect or phytotoxicity of 90% or more) | – | –
O=S(=O)(Cc1c(F)cccc1F)C1=NOC2(CCCCC2)C1 [Compound 1-384] | – | 5 (A herbicidal effect or phytotoxicity of 90% or more) | 5 (A herbicidal effect or phytotoxicity of 90% or more) | 4 (A herbicidal effect or phytotoxicity of 70% to less than 90%) | 0 (A herbicidal effect or phytotoxicity of 0% to less than 10%) | 5 (A herbicidal effect or phytotoxicity of 90% or more) | – | –
COC(=O)c1cccc(CS(=O)(=O)C2=NOC(C)(C)C2)c1[N+](=O)[O-] [Compound 1-503] | 4 (A herbicidal effect or phytotoxicity of 70% to less than 90%) | – | 5 (A herbicidal effect or phytotoxicity of 90% or more) | – | 0 (A herbicidal effect or phytotoxicity of 0% to less than 10%) | 5 (A herbicidal effect or phytotoxicity of 90% or more) | 5 (A herbicidal effect or phytotoxicity of 90% or more) | 5 (A herbicidal effect or phytotoxicity of 90% or more)
CC1(C)CC(S(=O)(=O)Cc2c(N)cccc2F)=NO1 [Compound 1-549] | – | – | 5 (A herbicidal effect or phytotoxicity of 90% or more) | – | 1 (A herbicidal effect or phytotoxicity of 10% to less than 30%) | 5 (A herbicidal effect or phytotoxicity of 90% or more) | 5 (A herbicidal effect or phytotoxicity of 90% or more) | 5 (A herbicidal effect or phytotoxicity of 90% or more)
COc1ccc(C(C)C)c(C)c1CS(=O)(=O)C1=NOC(C)(C)C1 [Compound 1-584] | 5 (A herbicidal effect or phytotoxicity of 90% or more) | – | 5 (A herbicidal effect or phytotoxicity of 90% or more) | – | 1 (A herbicidal effect or phytotoxicity of 10% to less than 30%) | 5 (A herbicidal effect or phytotoxicity of 90% or more) | – | –
CCCOC(=O)c1ccccc1CS(=O)(=O)C1=NOC(C)(C)C1 [Compound 1-594] | – | – | 5 (A herbicidal effect or phytotoxicity of 90% or more) | – | 1 (A herbicidal effect or phytotoxicity of 10% to less than 30%) | 5 (A herbicidal effect or phytotoxicity of 90% or more) | 5 (A herbicidal effect or phytotoxicity of 90% or more) | 4 (A herbicidal effect or phytotoxicity of 70% to less than 90%)
CCCCOC(=O)c1ccccc1CS(=O)(=O)C1=NOC(C)(C)C1 [Compound 1-596] | – | – | 5 (A herbicidal effect or phytotoxicity of 90% or more) | – | 1 (A herbicidal effect or phytotoxicity of 10% to less than 30%) | 5 (A herbicidal effect or phytotoxicity of 90% or more) | 5 (A herbicidal effect or phytotoxicity of 90% or more) | 5 (A herbicidal effect or phytotoxicity of 90% or more)
CCC(C)OC(=O)c1ccccc1CS(=O)(=O)C1=NOC(C)(C)C1 (stereo not shown) [Compound 1-597] | – | – | 5 (A herbicidal effect or phytotoxicity of 90% or more) | – | 1 (A herbicidal effect or phytotoxicity of 10% to less than 30%) | 5 (A herbicidal effect or phytotoxicity of 90% or more) | 5 (A herbicidal effect or phytotoxicity of 90% or more) | 4 (A herbicidal effect or phytotoxicity of 70% to less than 90%)
CCCCOc1cccc(C)c1CS(=O)(=O)C1=NOC(C)(C)C1 [Compound 1-605] | – | – | 5 (A herbicidal effect or phytotoxicity of 90% or more) | – | 1 (A herbicidal effect or phytotoxicity of 10% to less than 30%) | 5 (A herbicidal effect or phytotoxicity of 90% or more) | 5 (A herbicidal effect or phytotoxicity of 90% or more) | 4 (A herbicidal effect or phytotoxicity of 70% to less than 90%)
CC1(C)CC(S(=O)(=O)Cc2ccccc2OC2CCCCC2)=NO1 [Compound 1-610] | – | – | 5 (A herbicidal effect or phytotoxicity of 90% or more) | – | 1 (A herbicidal effect or phytotoxicity of 10% to less than 30%) | 5 (A herbicidal effect or phytotoxicity of 90% or more) | 5 (A herbicidal effect or phytotoxicity of 90% or more) | 5 (A herbicidal effect or phytotoxicity of 90% or more)
CCCCOCc1ccccc1CS(=O)(=O)C1=NOC(C)(C)C1 [Compound 1-615] | – | – | 5 (A herbicidal effect or phytotoxicity of 90% or more) | – | 1 (A herbicidal effect or phytotoxicity of 10% to less than 30%) | 5 (A herbicidal effect or phytotoxicity of 90% or more) | 5 (A herbicidal effect or phytotoxicity of 90% or more) | 5 (A herbicidal effect or phytotoxicity of 90% or more)
CCCOC(=O)c1cccc(Cl)c1CS(=O)(=O)C1=NOC(C)(C)C1 [Compound 1-620] | – | – | 5 (A herbicidal effect or phytotoxicity of 90% or more) | – | 1 (A herbicidal effect or phytotoxicity of 10% to less than 30%) | 5 (A herbicidal effect or phytotoxicity of 90% or more) | 5 (A herbicidal effect or phytotoxicity of 90% or more) | 5 (A herbicidal effect or phytotoxicity of 90% or more)
CS(=O)(=O)C1=NOC2(CCC2)C1 [Compound 2-29] | – | – | 5 (A herbicidal effect or phytotoxicity of 90% or more) | – | 1 (A herbicidal effect or phytotoxicity of 10% to less than 30%) | 5 (A herbicidal effect or phytotoxicity of 90% or more) | 5 (A herbicidal effect or phytotoxicity of 90% or more) | 5 (A herbicidal effect or phytotoxicity of 90% or more)
